Here are results for 10 molecules from PubChem BioAssay (NCI).

Some test systems named below: UO-31 renal; NCI/ADR-RES ovarian; MDA-MB-435; HL-60(TB) leukemia; UACC-62 melanoma; MDA-MB-231 breast; CAKI-1 renal; OVCAR-3 ovarian; COLO 205 colon; SK-MEL-28 melanoma.
Experiment in all cases: DTP human tumour cell line panel, 48 h

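Step 1: Grow cells in 96-well plates. Step 2: Expose to compound for 48 hours at 5 concentrations. Step 3: Interpolate endpoints linearly; if unreached, use highest concentration. Abbreviation: GI50, concentration required for 50% inhibition of growth. TGI marks complete inhibition of growth.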 Where only a bound is given, the exact number is not on record here.

The GI50 is the concentration giving 50% growth inhibition. A word on the TGI: it is the concentration at which net growth stops. Read a low TGI as greater sensitivity of the cells.

For `N=C(N)SCc1ccc([N+](=O)[O-])cc1[N+](=O)[O-]`, the GI50 in the assay on UO-31 renal was 3.21 µM; with NCI/ADR-RES ovarian it was 23 µM; in the assay on MDA-MB-435 it was 11.8 µM; with HL-60(TB) leukemia it was 3.38 µM; in the assay on UACC-62 melanoma it was 11.3 µM; with MDA-MB-231 breast, 12 µM. Besides, the GI50 was 4.86 µM in the assay on CAKI-1 renal, 4.54 µM in the assay on OVCAR-3 ovarian and 2.9 µM with COLO 205 colon. Besides, the TGI with UO-31 renal turned out to be 14.3 µM; in the assay with NCI/ADR-RES ovarian it was 89 µM; with MDA-MB-435, 29.3 µM; in the assay on HL-60(TB) leukemia, 17.3 µM; in the assay on UACC-62 melanoma, 25.3 µM; in the assay on MDA-MB-231 breast, 36.6 µM. Moreover, the TGI in the assay with CAKI-1 renal was 15.8 µM; in the assay on OVCAR-3 ovarian it was 15.2 µM; with COLO 205 colon, 7.96 µM.

With `CSc1nc(N)c2c(n1)NC(c1ccccc1)C1CCc3ccccc3C1=N2` (stereo unspecified), the GI50 was 0.737 µM in the assay with UO-31 renal; 5.58 µM with NCI/ADR-RES ovarian; 55.5 µM in the assay with MDA-MB-435; 4 µM in the assay with HL-60(TB) leukemia; 6.01 µM with UACC-62 melanoma; over 100 µM in the assay on MDA-MB-231 breast. Besides, the results for the GI50 in the assay with CAKI-1 renal, in the assay with OVCAR-3 ovarian and in the assay on COLO 205 colon were 31.3 µM, 6.85 µM and 25.8 µM, respectively. The TGI with UO-31 renal is 9.72 µM; in the assay on NCI/ADR-RES ovarian, over 100 µM; in the assay with MDA-MB-435 it was over 100 µM; in the assay on HL-60(TB) leukemia it was over 100 µM; in the assay on UACC-62 melanoma, over 100 µM; in the assay with MDA-MB-231 breast it was over 100 µM. In addition, the TGI in the assay on CAKI-1 renal, in the assay on OVCAR-3 ovarian and in the assay with COLO 205 colon was over 100 µM in each case.

Take `C#C/C=C/CC1OC(C(Br)CC)CC(Br)C2CC1O2` (stereo unspecified): the TGI with NCI/ADR-RES ovarian, in the assay on MDA-MB-435, with HL-60(TB) leukemia, in the assay on SK-MEL-28 melanoma, in the assay with UACC-62 melanoma and in the assay on MDA-MB-231 breast was over 100 µM in each case. In addition, the TGI with CAKI-1 renal, in the assay with OVCAR-3 ovarian and with COLO 205 colon was over 100 µM in each case.

For `NCCN1C(=O)c2ccccc2C1(O)c1ccc(Cl)cc1` (stereo unspecified), the TGI in the assay on NCI/ADR-RES ovarian was over 100 µM; in the assay with MDA-MB-435, 28.6 µM; with HL-60(TB) leukemia, 70.8 µM; with SK-MEL-28 melanoma it was 33.2 µM; in the assay on UACC-62 melanoma, 30.7 µM; in the assay on MDA-MB-231 breast, 34.7 µM. Also, the TGI with CAKI-1 renal was over 100 µM; in the assay with OVCAR-3 ovarian it was over 100 µM; in the assay on COLO 205 colon, 39.4 µM.

As to `COC(=O)[C@@H](OC)[C@@H]1Cc2cc3cc(OC4CC(OC5CC(O)C(O)C(C)O5)C(O)C(C)O4)c(C)c(O)c3c(O)c2C(=O)[C@H]1OC1CC(OC2CC(OC3CC(C)(O)C(O)C(C)O3)C(O)C(C)O2)C(O)C(C)O1` (stereo partly specified), the GI50 with UO-31 renal is 0.0335 µM; in the assay on NCI/ADR-RES ovarian, 0.688 µM; in the assay on MDA-MB-435, 0.0274 µM; in the assay on HL-60(TB) leukemia, 0.0405 µM; with SK-MEL-28 melanoma it was 0.0312 µM; with UACC-62 melanoma, 0.0194 µM. For the same molecule, the GI50 with MDA-MB-231 breast was 0.0479 µM; in the assay with CAKI-1 renal, 0.0425 µM. In addition, the TGI in the assay on UO-31 renal is 0.12 µM; in the assay with NCI/ADR-RES ovarian, over 16.5 µM; in the assay on MDA-MB-435 it was 0.0605 µM; in the assay with HL-60(TB) leukemia, 0.74 µM; with SK-MEL-28 melanoma, 0.106 µM; in the assay with UACC-62 melanoma, 0.0469 µM. For the same molecule, the TGI in the assay on MDA-MB-231 breast was found to be 0.148 µM.

`N#C/C(=C\c1cccc2cnccc12)N1N=NC2C=CC=CC21` (stereo unspecified): the GI50 was 0.602 µM with UO-31 renal; 3.53 µM in the assay with NCI/ADR-RES ovarian; 2.87 µM in the assay with MDA-MB-435; 3 µM in the assay on HL-60(TB) leukemia; 4.1 µM in the assay on SK-MEL-28 melanoma; 1.94 µM in the assay with MDA-MB-231 breast. For the same molecule, the GI50 is 1.7 µM in the assay on CAKI-1 renal, 1.91 µM in the assay on OVCAR-3 ovarian and 3.48 µM in the assay on COLO 205 colon. For the same molecule, the TGI in the assay on UO-31 renal was over 100 µM; in the assay with NCI/ADR-RES ovarian it was over 100 µM; in the assay on MDA-MB-435, over 100 µM; in the assay with HL-60(TB) leukemia it was 24.3 µM; with SK-MEL-28 melanoma, over 100 µM; in the assay with MDA-MB-231 breast, 8.05 µM. Also, the TGI was over 100 µM with CAKI-1 renal, 4.88 µM in the assay with OVCAR-3 ovarian and over 100 µM in the assay on COLO 205 colon.

Turning to `O=c1cc(O)c2c(O)cc(O)cc2o1`, the TGI in the assay on NCI/ADR-RES ovarian, in the assay on MDA-MB-435, with HL-60(TB) leukemia, with SK-MEL-28 melanoma, in the assay on UACC-62 melanoma and with MDA-MB-231 breast was over 100 µM each time. For the same molecule, the TGI in the assay on CAKI-1 renal, with OVCAR-3 ovarian and in the assay on COLO 205 colon was over 100 µM in each case.

Consider `COc1ccc(-c2nnc(Nc3nc(O)c(C4=c5cc(F)ccc5=NC4=O)s3)o2)cc1`, for which the GI50 is 37.9 µM with UO-31 renal; 49.7 µM with NCI/ADR-RES ovarian; 36.2 µM in the assay on MDA-MB-435; over 100 µM in the assay with SK-MEL-28 melanoma; 35.1 µM in the assay on UACC-62 melanoma; 19.8 µM with MDA-MB-231 breast. Further, the GI50 is 28.8 µM with CAKI-1 renal, 14.8 µM with OVCAR-3 ovarian and 68.2 µM in the assay with COLO 205 colon. Besides, the TGI in the assay on UO-31 renal is over 100 µM; in the assay with NCI/ADR-RES ovarian, over 100 µM; with MDA-MB-435 it was over 100 µM; in the assay with SK-MEL-28 melanoma, over 100 µM; with UACC-62 melanoma, over 100 µM; in the assay on MDA-MB-231 breast it was 52.2 µM. For the same molecule, the TGI in the assay on CAKI-1 renal is 99.3 µM; with OVCAR-3 ovarian, 42.3 µM; in the assay with COLO 205 colon, over 100 µM.

Turning to `COc1cc2c(cc1O)C(c1cc(O)c(O)c(OC)c1)C(O)(C(=O)O)C(CO)C2O` (stereo unspecified), the TGI in the assay with UO-31 renal is over 100 µM; in the assay on NCI/ADR-RES ovarian it was over 100 µM; in the assay with MDA-MB-435, 37 µM; in the assay on SK-MEL-28 melanoma it was over 100 µM; with UACC-62 melanoma, over 100 µM; in the assay with MDA-MB-231 breast, over 100 µM. For the same molecule, the TGI with CAKI-1 renal, in the assay on OVCAR-3 ovarian and in the assay with COLO 205 colon was over 100 µM throughout.

Take `O=S(=O)(NCCO)c1cc[c]([Sb](=[O])([OH])[OH])cc1`: the GI50 in the assay with UO-31 renal, in the assay with NCI/ADR-RES ovarian, in the assay on MDA-MB-435, with HL-60(TB) leukemia, in the assay on SK-MEL-28 melanoma and with UACC-62 melanoma was over 100 µM throughout. Also, the GI50 with MDA-MB-231 breast, in the assay with CAKI-1 renal and in the assay with OVCAR-3 ovarian was over 100 µM in each case. In addition, the TGI in the assay with UO-31 renal, in the assay with NCI/ADR-RES ovarian, with MDA-MB-435, with HL-60(TB) leukemia, in the assay on SK-MEL-28 melanoma and in the assay on UACC-62 melanoma was over 100 µM throughout. The TGI with MDA-MB-231 breast, with CAKI-1 renal and with OVCAR-3 ovarian was over 100 µM throughout.
